Measured values taken from PMC6100073, “Activation of Anthracene Endoperoxides in Leishmania and Impairment of Mitochondrial Functions” (Molecules : A Journal of Synthetic Chemistry and Natural …, 2018).
Where two headings read alike, the source gives them in different places.

Columns and labels:
[1] = tested on: axenic Leishmania tarentolae amastigotes (axLtA); test: MTT viability assay in axenic Leishmania tarentolae amastigotes; format: cell-based
Protocol: An aliquot of the original LtP culture broth that was equivalent to 108 × 10^6 cells was centrifuged at 2000× g for 10 min (Sorvall RC26 Plus, rotor: SH-3000, Thermo Fisher Scientific, Waltham, MA, USA). The resulting supernatant was discarded, and the cell pellet was resuspended in 10 mL of Schneider’s medium (adjusted to a pH of 4.5 using HCl; containing 50% FCS, 25,000 U/L penicillin, and 25 mg/L streptomycin). The cell suspension was transferred and cultured in a 50 mL TubeSpin bioreactor at 32 °C. Every 3–4 days, the cells were passaged. Therefore, the cell broth was centrifuged at 2000× g for 10 min, and the supernatant was discarded. The cells were resuspended in fresh medium. During the first 14 days, after the culture was started, the cells transformed from the promastigote to the axenic amastigote state (axLtA). Subsequent to this initial period, the axenic amastigotes were passaged every 3–4 days. To determine cell density of the broth, an aliquot of the suspension, usually 1 mL, was transferred into an Eppendorf tube. The cells were then diluted 1:2 up to 1:40 using PBS, depending on the cell density of the broth. An aliquot of 20 µL of this dilution was further diluted 1:2 with a 2% formaldehyde solution (in PBS). Of this final suspension, 10 µL were transferred to each counting chamber of a standard Neubauer chamber (VWR, Wien, Austria). The cells were incubated for 5 min at 25 °C to let them sediment. Photographs of the counting chambers were taken using a light microscope (Lacerta LIS-5 microscope, Lacerta GmbH, Vienna, Austria) with an attached camera. The photos were obtained at a magnification of 100×. Four photos of every counting chamber were taken, resulting in a total of eight photos. The pictures were then analyzed with the Fiji ImageJ (2.0.0) software (Wayne Rasband, National Institutes of Health (NIH), Bethesda, Maryland (MD), USA). The results were averaged giving the final cell number of the culture broth.
Owing to the acidic conditions needed for axLtA (pH 4.5), viability assays with axLtA were carried out using MTT instead of resazurin that is unstable in an acidic environment. Cell suspensions (200 µL) of axLtA (6 × 10^6 parasites/mL) in Schneider’s medium (pH = 4.5), containing 25,000 U/L penicillin, 25 mg/L streptomycin, and 50% FCS were prepared and distributed in 96-well round-bottom microplates. Then compounds were added (leading to a final vehicle concentration of max. 2% DMSO in the wells). Subsequently, five 1:5 serial dilution steps were performed. Control rows were loaded with 200 µL of either Schneider’s medium or axLtA suspension. After incubation at 32 °C for 48 h, 20 µL of MTT solution (in PBS) were added to each well (1 mM final concentration) and incubated for additional 4 h. Then plates were centrifuged at 400× g for 5 min (Hettich Rotina 420, Tuttlingen, Germany), and the supernatant was discarded. DMSO (100 µL) was added to each well and incubated at 32 °C for 10 min. Then the OD at 570 nm and 630 nm was determined using a plate reader (Perkin Elmer Enspire, Rodgau, Germany).
Calculations were carried out using Microsoft Excel (Microsoft). The graphs were created using Origin 6.1 (OriginLab Corporation, Northampton, MA, USA). The half maximal inhibitory concentrations (IC50) were determined from non-linear concentration–response curves using a four-parameter logistic model and expressed as the mean ± standard deviation (SD). Statistically significant differences of p <0.05 were identified using Students t-test.

[2] = tested on: Leishmania donovani promastigotes (LdP); test: MTS-PMS viability assay in Leishmania donovani promastigotes; format: cell-based; conditions: endpoint at 48 h, 5 × 10^5 LdP/mL, read-out: IC50 (µM) Mean ± SD LdP
Protocol: Leishmania donovani (PS14) were originated from the splenic aspirate of a patient with visceral leishmaniasis. Typing of the species was done by a restriction fragment length polymorphism (RFLP) method. The parasites were cultivated in M199 medium supplemented with 20% FBS, penicillin G (50,000 IU/L), streptomycin (50 mg/L), and hemin (5 µM) at 24 °C for transformation. After 1–2 weeks, the successfully transformed parasites (Leishmania donovani promastigotes, LdP) were transferred to M199 medium supplemented with 10% FBS, penicillin G (50,000 IU/L), streptomycin (50 mg/L), and hemin (5 µM) in 12.5 cm^2 flasks (HiMedia, Mumbai, India) at 24 °C. The cells were sub-cultured every 48–72 h, 1 × 10^6 cells/mL being the inoculum.
The antileishmanial activity of anthracene endoperoxides (AcEPs) in LdP was established in promastigotes, and cell viability was measured using the modified MTS-PMS assay. Briefly, log phase promastigotes (1 × 10^5 cells/200 µL of Schneider‘s medium/well) were incubated with AcEPs (0–100 µM) for 48 h, and afterwards, parasite viability was measured. For this, MTS (2.0 mg/mL) and PMS (0.92 mg/mL) were added in a ratio of 5:1 (20 µL/well), and plates were incubated for 3 h at 37 °C; resultant absorbance was measured at 490 nm in a spectrofluorimeter (Merilyzer EIaQuant, Meril Life Sciences, Gujarat, India). The mean percent viability was calculated as follows: mean specific absorbance of treated parasites/mean specific absorbance of untreated parasites × 100. Results were expressed as IC50 values. These were enumerated by graphical extrapolation using Graph pad Prism software (version 5).

[3] = Xylenol orange assay: reaction of endoperoxides with Fe2+; conditions: 50 µM compound, 250 µM FeSO4, 125 µM xylenol orange, methanol/H2O (9:1 v/v)
Protocol: Xylenol orange (XO) (125 µM) and butylated hydroxytoluene (4 mM) were dissolved in methanol/H2O (9:1, v/v). FeSO4 (25 mM) in 2.5 M H2SO4 was prepared immediately before use and added, giving a final concentration of 250 µM FeSO4 in the samples. An aliquot of 100 µL EP solution (final concentration of 50 µM) was transferred into a disposable 1.5 mL cuvette (BRAND, Wertheim, Germany), and 1 mL of the color reagent was added. […] At these time points, the OD difference of the sample at 560 nm and 650 nm was determined using a MS1501 UV-vis diode array spectrophotometer (Shimadzu, Japan). As reference, a mixture of methanol/H2O (9:1, v/v) was used. […] The slope of the reaction rate was calculated using an extinction coefficient of the complex of 1.5 × 10^4 M^−1 cm^−1.

[4] = Leishmania tarentolae, 48 h, pH 4.5, MTT assay, endpoint at 48 h, 6 × 10^6 axLtA/mL, pH 4.5, read-out: IC50 (µM) Mean ± SD axLtA

Row | SMILES | IC50 ([2]; Leishmania donovani, 48 h) | IC50 [2] | IC50 [1, 4] | IC50 ([1]; Leishmania tarentolae, 48 h, pH 4.5, read-out: IC50 (µM) Mean ± SD axLtA, MTT assay, endpoint at 48 h, 6 × 10^6 axLtA/mL, pH 4.5) | Slope (nM·min^−1) Mean ± SD of XO/Fe^3+ complex formation [3] | IC50 ([1]; MTT assay, endpoint at 48 h, 6 × 10^6 axLtA/mL, pH 4.5, read-out: IC50 (µM) Mean ± SD axLtA)
1 | O=C1c2ccccc2C(=O)c2ccccc21 [AQ, anthraquinone, reference compound] |  |  | 369 ± 9.81 µM |  |  | 
2 | c1ccc2cc3ccccc3cc2c1 [Ac, anthracene] |  |  |  | > 400 µM |  | 
3 | CC12OOC(c3ccccc31)c1ccccc12 [AcEP1129, 9-methyl-9,10-dihydro-9,10-epidioxidoanthracene] | 4.21 ± 0.36 µM |  | 3.29 ± 0.13 µM |  | 200,213 ± 60,600 nM·min^−1 | 

Second part, led by results:

Row | IC50 ([2]; Leishmania donovani, 48 h) | IC50 [2] | SMILES | IC50 [1, 4] | IC50 ([1]; Leishmania tarentolae, 48 h, pH 4.5, read-out: IC50 (µM) Mean ± SD axLtA, MTT assay, endpoint at 48 h, 6 × 10^6 axLtA/mL, pH 4.5) | Slope (nM·min^−1) Mean ± SD of XO/Fe^3+ complex formation [3] | IC50 ([1]; MTT assay, endpoint at 48 h, 6 × 10^6 axLtA/mL, pH 4.5, read-out: IC50 (µM) Mean ± SD axLtA)
4 | 2.65 ± 0.34 µM |  | c1ccc2c(c1)C1OOC2c2ccccc21 [AcEP1117, 9,10-dihydro-9,10-epidioxidoanthracene] | 56.4 ± 15 µM |  | 77 ± 18 nM/min | 
5 | 4.1 ± 0.94 µM |  | CC12OOC(C)(c3ccccc31)c1ccccc12 [AcEP1118, 9,10-dimethyl-9,10-dihydro-9,10-epidioxidoanthracene] | 6.43 ± 0.4 µM |  | 2940 ± 11 nM/min | 
6 | 39.5 ± 3.48 µM |  | CCc1ccc2c(c1)C1OOC2c2ccccc21 (stereo not drawn) [AcEP1130, 2-ethyl-9,10-dihydro-9,10-epidioxidoanthracene] | 15.3 ± 0.31 µM |  | 146 ± 27 nM/min | 
7 | < 1 µM | 0.55 ± 0.11 µM | N=C(N)c1ccc(OCCCCCOc2ccc(C(=N)N)cc2)cc1 [Pen, pentamidine, reference compound] | < 1 µM |  |  | 0.67 ± 0.31 µM
